Results from patent US20240025849A1 (MAX DELBRÜCK-CENTRUM FÜR MOLEKULARE MEDIZIN IN DER …, priority 2020, published 2024).

System: primary cultured neonatal microglia
Assay: LPS induced NO release, HTS setup (Griess reagent)
Type: cell-based
Conditions: Mus musculus, 1 h pre-treatment, 1 μg/ml LPS 48 h, read-out: IC50, LPS-induced production of NO
Experimental: Primary cultured neonatal microglia. For preparation of cultured neonatal microglia, P0-P3 mice were used. 10 brains were extracted, meninges and cerebellum were removed and put on ice with Hank's balanced salt solution (HBSS). The dissected brains were washed 3 times before adding 400 μL trypsin (0.1 mg/L) and DNAse (5 μg/L) in phosphate buffered saline (PBS). After 2 min of incubation with this solution, the reaction was blocked by adding plain medium. After removal of the medium, 1 mg DNAse was added and the cells were mechanically dissociated, with a Pasteur pipette followed by a glass pipette. The cells were centrifuged for 10 min at 129 g at 4° C. The supernatant was discarded. The pellet was resuspended in plain medium and plated (2.5 brains/flask) in Poly-L-Lysine coated flasks. […]
High throughput screening (HTS). […] Incubation with LPS and compounds was continued for 48 hours, followed by addition of 25 μl of 2-fold concentrated Griess reagent and absorbance reading at 540 nm in a plate reader (Safire2, Tecan, Maennedorf, Switzerland). Active compounds were identified by decreased Z-scores of the absorbance signal. […]
Concentration-dependent validation and viability determination. […] Each concentration was measured in duplicate. […] Finally, the resorufin fluorescence was detected at an excitation wavelength of 530 nm and emission of 570 nm. […]

SMILES: COc1ccc(NC(=O)C(NC(=O)C2CCCN2C(=O)OCc2ccccc2)c2ccc(OC)cc2)cc1 (stereo not shown) [C1]
- IC50: 224 nM
